Measurements as given in patent publication US20050222043A1, “Use of proteasome inhibitor in the treatment of fibrotic diseases” (priority 2002, published 2005).
Entries after “also recorded” stand apart in the source; their conditions may differ. Peptide text beside a SMILES is read from it. * marks the point of attachment. Cbz = O=C(OCc1ccccc1)*

How the values were obtained:
[1] = tested on: collagens Iα1, Iα2 and IIIα1; assay: Real-time PCR of collagen expression (stated jointly) in cardiac fibroblasts; format: cell-based, rat; details: primary cardiac fibroblasts, FIG. 2B
Protocol: (§1) Cardiac fibroblasts were prepared from neonatal Wistar rats by plating the non-myocyte fraction of neonatal hearts. The hearts were removed from neonatal rats being 2-3 days old. Ventricular tissue was treated over night at 4° C. with […] trypsin in Hanks-Balanced Salt Saline (HBSS) (Ca^2+- and Mg^2+-free, Invitrogen™, Karlsruhe, Germany) and with collagenase (0,5 mg per ml) in Leibowitz medium (L-15, Invitrogen™, Karlsruhe, Germany) for 45 minutes at 37° C. After washing, the cells were pre-plated at 37° C. for one hour. The adherent cells predominantly were cardiac fibroblasts, which were then further cultivated under standard conditions in standard M199-medium with 10% new-born calf serum, L-glutamine and penicillin-streptomycin (Invitrogen™, Karlsruhe, Germany). In the experiments, we used sub-cultivated fibroblasts of the passages 3-7.
(§2) Total RNA was extracted by means of Trizol reagent (Invitrogen™, Karlsruhe, Germany). In the following, the RNA was subjected to reverse transcription (AMF Reverse Transkriptase, Roche Biochemicals, Mannheim, Germany) and treated with DNase (Ambion, Huntington, UK). […] The relative quantification was performed by means to the comparative CT-method as being described by the manufacturer. […]

[2] = tested on: spontaneously hypertensive rats (SH-rats); assay: Histological determination of cardiac fibrosis (quantitative morphometry of siriusred-stained left-ventricular sections) in SH-rats; format: in vivo, rat; details: MG132-treated, FIG. 1B
Protocol: For the pathohistological evaluation, the rat hearts were embedded into paraffin, cut into sections having a thickness of 3 μm, subjected to a haematoxylin-eosin and siriusred staining and analysed as being described in Hocher, B. et al., (1999), Hypertension, 3, 816-822. The degree of heart fibrosis was evaluated by means of quantitative morphometry of the siriusred-stained sections with an image analysis system (Quantimed 500, Image 1.61 program). In this analysis, the ratio of the red-stained tissue (connective tissue) and the total tissue of the section was determined.
Male SH-rats of the same age were obtained from the Jackson Laboratory, Maine, USA. […] The blood pressure was measured weekly by means of the standard tail-cuff method. The blood values and the standard laboratory markers of the renal and hepatic functions were determined 6 weeks after the treatment and at the end of the study by means of standard methods. At the end of the study, the animals were anaesthetised by means of an intraperitoneal injection of a 20% urethane solution (0,9 g per kg body weight) and the left-ventricular pressure parameters were determined as being described by Saragoca, M. et al. (1981) Hypertension, 3, 380-385. […]
The data was determined in the form of mean values ±S.E.M., if not otherwise indicated. […]

[3] = tested on: spontaneously hypertensive rats (SH-rats); assay: Left-ventricular pressure parameters in SH-rats; format: in vivo, rat; details: 1 mg/kg daily i.p., 12 weeks
Protocol: (§3) Male SH-rats of the same age were obtained from the Jackson Laboratory, Maine, USA. The animals were maintained according to the international guidelines for the keeping und use of laboratory animals. 6-week-old rats were treated for 12 weeks with MG132 (1 mg per kg body weight), 0,1% DMSO as solvent control or with physiological saline (n=10 per group, daily intraperitoneal injection). The animals were fed with a high salt diet (drinking water with 2% sodium chloride). The blood pressure was measured weekly by means of the standard tail-cuff method. The blood values and the standard laboratory markers of the renal and hepatic functions were determined 6 weeks after the treatment and at the end of the study by means of standard methods. At the end of the study, the animals were anaesthetised by means of an intraperitoneal injection of a 20% urethane solution (0,9 g per kg body weight) and the left-ventricular pressure parameters were determined as being described by Saragoca, M. et al. (1981) Hypertension, 3, 380-385. The organs were withdrawn, weighed and either shock-frozen in liquid nitrogen or embedded in paraffin for the histological analysis. Since no difference was observed between the DMSO-treated and the salt-treated SH-rats in respect to the above mentioned parameters, the DMSO-treated animals served as a control for the MG132-treatment.
(§4) The data was determined in the form of mean values ±S.E.M., if not otherwise indicated. The significance of the differences in the left-ventricular pressure parameters and in the quantification of the heart fibrosis was determined according to Student's T-test. For the cell proliferation test, the significance was determined by comparing the regression coefficients of MG132 in relation to the control group. An error probability of p<0,05 was considered as being significant. The software SPSS 9.0 was used for all statistical calculations.

[4] = tested on: spontaneously hypertensive rats (SH-rats); assay: Animal study: tolerability, blood pressure, weights, blood values in SH-rats; format: in vivo, rat
Protocol: as §3

[5] = tested on: cardiac fibroblasts; assay: Proliferation test (trypanblue exclusion cell counting); format: cell-based, rat; details: 0,1 and 1 μM, 10% serum, counted daily for 7 days
Protocol: Cardiac fibroblasts were prepared from neonatal Wistar rats by plating the non-myocyte fraction of neonatal hearts. The hearts were removed from neonatal rats being 2-3 days old. Ventricular tissue was treated over night at 4° C. with […] trypsin in Hanks-Balanced Salt Saline (HBSS) (Ca^2+- and Mg^2+-free, Invitrogen™, Karlsruhe, Germany) and with collagenase (0,5 mg per ml) in Leibowitz medium (L-15, Invitrogen™, Karlsruhe, Germany) for 45 minutes at 37° C. After washing, the cells were pre-plated at 37° C. for one hour. […]
MG132, ALLM and MG262 were purchased at Calbiochem® (San Diego, Calif., USA) and provided as 10 mM DMSO stock solutions. […] The proliferation was determined by counting the living cells in triplicate in daily intervals by means of the trypanblue exclusion test. […]
as §4, with “An error probability of p<0,05 was considered as being significant. The software SPSS 9.0 was used for all statistical calculations.” left out

[6] = tested on: collagen Iα1; assay: Real-time PCR of collagen Iα1 mRNA in cardiac fibroblasts; format: cell-based, rat; details: primary cardiac fibroblasts
Protocol: as §1
(§5) Total RNA was extracted by means of Trizol reagent (Invitrogen™, Karlsruhe, Germany). In the following, the RNA was subjected to reverse transcription (AMF Reverse Transkriptase, Roche Biochemicals, Mannheim, Germany) and treated with DNase (Ambion, Huntington, UK). […] The relative quantification was performed by means to the comparative CT-method as being described by the manufacturer.

[7] = tested on: collagen Iα2; assay: Real-time PCR of collagen Iα2 mRNA in cardiac fibroblasts; format: cell-based, rat; details: primary cardiac fibroblasts
Protocol: as §1, §5

[8] = tested on: collagen IIIα1; assay: Real-time PCR of collagen IIIα1 mRNA in cardiac fibroblasts; format: cell-based, rat; details: primary cardiac fibroblasts
Protocol: as §1, §5

[9] = tested on: MMP2 and MMP9; assay: Real-time PCR of MMP expression in cardiac fibroblasts; format: cell-based, rat; details: FIG. 4A
Protocol: as §1, §2

[10] = tested on: NFκB; assay: Band shift analysis for active NFκB in nuclear extracts of cardiac fibroblasts; format: cell-based, rat; details: 0,5 μM with IL-1β; not less than 6 hours
Protocol: This was additionally confirmed in band shift analyses with oligonucleotides comprising a NFκB-DNA binding site. For this test, nuclear extracts from cardiac fibroblasts were prepared, which were treated with 0,5 μM MG132 or, respectively, with DMSO (solvent control) in a time course in the presence or absence of IL-1β.

Row | Structure (SMILES) | effect on collagen expression [1] | cardiac fibrosis in heart section (in words) [2] | LVEDP compared with control (in words) ([3]; 1 mg/kg) | dp/dtmax compared with control (in words) ([3]; 1 mg/kg) | left-ventricular end-diastolic (filling) pressure LVEDP ([3]; mean ± S.E.M.) [mm Hg] | maximal pressure drop rate dp/dtmin ([3]; mean ± S.E.M.) [mm Hg/s] | tolerability of long-term treatment ([4]; SH-rats, 1 mg per kg daily, 12 weeks) | Body Weight ([4]; SH-rats, 1 mg/kg MG132) [g] | differential blood picture and laboratory markers of kidney or liver side effects ([4]; blood samples after 6 weeks and at end of study) | inhibition of proliferation / growth of cardiac fibroblasts [5] | expression of collagen Iα1 [6] | expression of collagen Iα2 (in words) ([7]; FIG. 2B) | down-regulation / inhibition of collagen Iα2 RNA expression ([7]; dose-dependent) | expression of collagen IIIα1 (in words) ([8]; FIG. 2B) | down-regulation / inhibition of collagen IIIα1 RNA expression ([8]; dose-dependent) | expression of MMP2 and MMP9 under co-stimulation with IL-1β [9] | effect on IL-1β-induced NFκB activation (band shift) [10]
1 | CSCC[C@@H](C=O)NC(=O)[C@H](CC(C)C)NC(=O)[C@H](CC(C)C)NC(C)=O [ALLM] (Ac-Leu-Leu-Met-aldehyde) | no effects |  |  |  |  |  |  |  |  |  |  |  |  |  |  |  | 
2 | CC(C)C[C@@H](C=O)NC(=O)[C@H](CC(C)C)NC(=O)[C@H](CC(C)C)NC(=O)OCc1ccccc1 [MG132, Z-Leu-Leu-Leu-al] (Cbz-Leu-Leu-Leu-aldehyde) |  | significantly reduced cardiac fibrosis | remarkably reduced pressure level; also recorded: significantly lower | significantly higher; also recorded: more than twice higher | 5±3 | −5046±726 | very well tolerated; also recorded: in general well tolerated | 280 ± 15.3 | neither changes in the differential blood picture nor a change in the laboratory markers | dose-dependent inhibition of proliferation | unaffected | dose-dependent and dramatic reduction | up to 73% | dose-dependent and dramatic reduction | up to 91% | surprisingly strong reduction | small inhibitory effect
3 | CC(C)C[C@H](NC(=O)[C@H](CC(C)C)NC(=O)[C@H](CC(C)C)NC(=O)OCc1ccccc1)B(O)O [MG262] | inhibited the collagen expression in a comparably effective manner |  |  |  |  |  |  |  |  |  |  |  |  |  |  |  | 
